According to ChEMBL document CHEMBL1121501, “Synthesis and preliminary binding studies of 4,4-ditritio-(-)-nicotine of high specific activity” (J Med Chem, 1980):

What was measured:
Rattus norvegicus [1] = species on record: Rattus norvegicus
Description: Compound was evaluated for the binding affinity at crude mitochondrial fraction of rat whole brain at 13 fmol of binding sites/mg of protein

Rattus norvegicus [2] = species on record: Rattus norvegicus; remark: listed apart in the source
Description: Compound was evaluated for the binding affinity at crude mitochondrial fraction of rat whole brain at 7 nmol/mg of protein.

CN1CCC[C@H]1c1cccnc1
Ka (Rattus norvegicus [1]): 4.7e+06 M⁻¹ | Ka (Rattus norvegicus [2]): 4400 M⁻¹
